Columns and labels:
Assay type in all cases: functional
[1] = Growth inhibition of human UO31 cells after 48 hrs by sulforhodamine B assay; conditions: UO-31, 48 h; for CC50: read-out: LC50 (the source's name)
HL-60(TB) = experiment: Growth inhibition of human HL-60(TB) cells assessed as cell growth at 10^-5 M after 48 hrs by sulforhodamine B assay; conditions: HL-60, 48 h, read-out: Activity
[2] = Growth inhibition of human BT549 cells assessed as cell growth at 10^-4 M after 48 hrs by sulforhodamine B assay; conditions: BT-549, 48 h, read-out: Activity
SF-268 [3] = experiment: Growth inhibition of human SF268 cells assessed as cell growth at 10^-5 M after 48 hrs by sulforhodamine B assay; conditions: SF-268, 48 h, read-out: Activity
[4] = Growth inhibition of human SF539 cells assessed as cell growth at 10^-5 M after 48 hrs by sulforhodamine B assay; conditions: SF-539, 48 h, read-out: Activity
MDA-MB-435 [5] = experiment: Growth inhibition of human MDA-MB-435 cells assessed as cell growth at 10^-7 M after 48 hrs by sulforhodamine B assay; conditions: MDA-MB-435, 48 h, read-out: Activity
SF-268 [6] = experiment: Growth inhibition of human SF268 cells assessed as cell growth at 10^-6 M after 48 hrs by sulforhodamine B assay; conditions: SF-268, 48 h, read-out: Activity
SK-MEL-5 = experiment: Growth inhibition of human SK-MEL-5 cells assessed as cell growth at 10^-5 M after 48 hrs by sulforhodamine B assay; conditions: SK-MEL-5, 48 h, read-out: Activity
DU-145 = experiment: Growth inhibition of human DU145 cells assessed as cell growth at 10^-5 M after 48 hrs by sulforhodamine B assay; conditions: DU-145, 48 h, read-out: Activity
CAKI-1 = experiment: Growth inhibition of human CAKI-1 cells assessed as cell growth at 10^-5 M after 48 hrs by sulforhodamine B assay; conditions: CAKI-1, 48 h, read-out: Activity
MDA-MB-435 [7] = experiment: Growth inhibition of human MDA-MB-435 cells assessed as cell growth at 10^-4 M after 48 hrs by sulforhodamine B assay; conditions: MDA-MB-435, 48 h, read-out: Activity
A549 [8] = experiment: Growth inhibition of human A549/ATCC cells after 48 hrs by sulforhodamine B assay; conditions: A549, 48 h; for CC50: read-out: LC50 (the source's name)
SF-268 [9] = experiment: Growth inhibition of human SF268 cells assessed as cell growth at 10^-7 M after 48 hrs by sulforhodamine B assay; conditions: SF-268, 48 h, read-out: Activity
786-0 = experiment: Growth inhibition of human 786-0 cells assessed as cell growth at 10^-5 M after 48 hrs by sulforhodamine B assay; conditions: 786-0, 48 h, read-out: Activity
SN12C = experiment: Growth inhibition of human SN12C cells assessed as cell growth at 10^-8 M after 48 hrs by sulforhodamine B assay; conditions: for growth at 0.01 µM: read-out: Activity; for TGI: read-out: pTGI (converted)
[10] = Growth inhibition of human BT549 cells assessed as cell growth at 10^-6 M after 48 hrs by sulforhodamine B assay; conditions: BT-549, 48 h, read-out: Activity
MDA-MB-231 = experiment: Growth inhibition of human MDA-MB-231 cells assessed as cell growth at 10^-6 M after 48 hrs by sulforhodamine B assay; conditions: MDA-MB-231, 48 h, read-out: Activity
SW-620 [11] = experiment: Growth inhibition of human SW620 cells after 48 hrs by sulforhodamine B assay; conditions: SW-620, 48 h; for CC50: read-out: LC50 (the source's name)
[12] = Growth inhibition of human MOLT4 cells assessed as cell growth at 10^-5 M after 48 hrs by sulforhodamine B assay; conditions: MOLT-4, 48 h, read-out: Activity
IGROV-1 = experiment: Growth inhibition of human IGROV1 cells assessed as cell growth at 10^-5 M after 48 hrs by sulforhodamine B assay; conditions: IGROV-1, 48 h, read-out: Activity
A549 [13] = experiment: Growth inhibition of human A549/ATCC cells assessed as cell growth at 10^-6 M after 48 hrs by sulforhodamine B assay; conditions: A549, 48 h, read-out: Activity
SW-620 [14] = experiment: Growth inhibition of human SW620 cells assessed as cell growth at 10^-5 M after 48 hrs by sulforhodamine B assay; conditions: SW-620, 48 h, read-out: Activity
K562 = experiment: Growth inhibition of human K562 cells assessed as cell growth at 10^-5 M after 48 hrs by sulforhodamine B assay; conditions: K562, 48 h, read-out: Activity
[15] = Growth inhibition of human UACC62 cells assessed as cell growth at 10^-7 M after 48 hrs by sulforhodamine B assay; conditions: UACC-62, 48 h, read-out: Activity
SNB-19 = experiment: Growth inhibition of human SNB19 cells assessed as cell growth at 10^-5 M after 48 hrs by sulforhodamine B assay; conditions: SNB-19, 48 h, read-out: Activity
NCI-H322M = experiment: Growth inhibition of human NCI-H322M cells assessed as cell growth at 10^-5 M after 48 hrs by sulforhodamine B assay; conditions: read-out: Activity
[16] = Growth inhibition of human LOXIMVI cells assessed as cell growth at 10^-5 M after 48 hrs by sulforhodamine B assay; conditions: LOX IMVI, read-out: Activity
M14 = experiment: Growth inhibition of human M14 cells assessed as cell growth at 10^-5 M after 48 hrs by sulforhodamine B assay; conditions: M14, 48 h, read-out: Activity
NCI-H226 = experiment: Growth inhibition of human NCI-H226 cells assessed as cell growth at 10^-4 M after 48 hrs by sulforhodamine B assay; conditions: NCI-H226, 48 h, read-out: Activity
Malme-3M = experiment: Growth inhibition of human MALME-3M cells after 48 hrs by sulforhodamine B assay; conditions: for CC50: read-out: LC50 (the source's name)
PC-3 = experiment: Growth inhibition of human PC3 cells assessed as cell growth at 10^-7 M after 48 hrs by sulforhodamine B assay; conditions: PC-3, 48 h, read-out: Activity
[17] = Growth inhibition of human OVCAR4 cells assessed as cell growth at 10^-5 M after 48 hrs by sulforhodamine B assay; conditions: OVCAR-4, 48 h, read-out: Activity
A498 = experiment: Growth inhibition of human A498 cells assessed as cell growth at 10^-5 M after 48 hrs by sulforhodamine B assay; conditions: A498, 48 h, read-out: Activity
CCRF-CEM = experiment: Growth inhibition of human CCRF-CEM cells assessed as cell growth at 10^-5 M after 48 hrs by sulforhodamine B assay; conditions: read-out: Activity
[18] = Growth inhibition of human NCI-ADR-RES cells assessed as cell growth at 10^-5 M after 48 hrs by sulforhodamine B assay; conditions: read-out: Activity
[19] = Growth inhibition of human HOP92 cells assessed as cell growth at 10^-8 M after 48 hrs by sulforhodamine B assay; conditions: HOP-92, 48 h; for growth at 0.01 µM: read-out: Activity; for TGI: read-out: pTGI (converted)

Cc1ccc(S(=O)(=O)N2C/C(=C\c3cc(F)cc(F)c3)C(=O)/C(=C/c3cc(F)cc(F)c3)C2)cc1
GI50 [1]: 1090 nM
TGI [1]: 2370 nM
CC50 [1]: 5.17 µM
growth at 10 µM (HL-60(TB)): -14%
growth at 100 µM [2]: -95%
growth at 10 µM (SF-268 [3]): -43%
growth at 10 µM [4]: -72%
growth at 0.1 µM (MDA-MB-435 [5]): 92%
growth at 1 µM (SF-268 [6]): 21%
growth at 10 µM (SK-MEL-5): -92%
growth at 10 µM (DU-145): -65%
growth at 10 µM (CAKI-1): -25%
growth at 100 µM (MDA-MB-435 [7]): -83%
GI50 (A549 [8]): 2860 nM
TGI (A549 [8]): 14.6 µM
CC50 (A549 [8]): > 100 µM
growth at 0.1 µM (SF-268 [9]): 100%
growth at 10 µM (786-0): -87%
GI50 (SN12C): 339 nM
LC50 (SN12C): 4.27 µM
growth at 0.01 µM (SN12C): 95%
TGI (SN12C): 1320 nM
growth at 1 µM [10]: -4%
growth at 1 µM (MDA-MB-231): -11%
GI50 (SW-620 [11]): 72.1 nM
TGI (SW-620 [11]): 305 nM
CC50 (SW-620 [11]): 1450 nM
growth at 10 µM [12]: -17%
growth at 10 µM (IGROV-1): -77%
growth at 1 µM (A549 [13]): 86%
growth at 10 µM (SW-620 [14]): -79%
growth at 10 µM (K562): -19%
growth at 0.1 µM [15]: 93%
growth at 10 µM (SNB-19): -97%
growth at 10 µM (NCI-H322M): 25%
growth at 10 µM [16]: -98%
growth at 10 µM (M14): -68%
growth at 100 µM (NCI-H226): -32%
GI50 (Malme-3M): 274 nM
TGI (Malme-3M): 742 nM
CC50 (Malme-3M): 3.81 µM
growth at 0.1 µM (PC-3): 89%
growth at 10 µM [17]: -31.4%
growth at 10 µM (A498): -59%
growth at 10 µM (CCRF-CEM): -23%
growth at 10 µM [18]: 7.23%
GI50 [19]: 1120 nM
LC50 [19]: 9.77 µM
growth at 0.01 µM [19]: 72%
TGI [19]: 3.31 µM

Cc1ccc(S(=O)(=O)N2C/C(=C\c3c(Cl)cccc3Cl)C(=O)/C(=C/c3c(Cl)cccc3Cl)C2)cc1
growth at 10 µM (HL-60(TB)): 94.5%
growth at 10 µM (SF-268 [3]): 83.6%
growth at 10 µM [4]: 106%
growth at 10 µM (SK-MEL-5): 85%
growth at 10 µM (DU-145): 96.8%
growth at 10 µM (CAKI-1): 61.6%
growth at 10 µM (786-0): 93.3%
growth at 10 µM [12]: 68.7%
growth at 10 µM (IGROV-1): 104%
growth at 10 µM (SW-620 [14]): 101%
growth at 10 µM (K562): 81.6%
growth at 10 µM (SNB-19): 95.7%
growth at 10 µM (NCI-H322M): 93.5%
growth at 10 µM [16]: 79.4%
growth at 10 µM (M14): 79.1%
growth at 10 µM [17]: 85.3%
growth at 10 µM (A498): 109%
growth at 10 µM (CCRF-CEM): 72.7%
growth at 10 µM [18]: 90.9%

O=C1/C(=C/c2ccc(Cl)cc2Cl)CN(S(=O)(=O)c2ccccc2)C/C1=C\c1ccc(Cl)cc1Cl
GI50 [1]: 236 nM
TGI [1]: 639 nM
CC50 [1]: 4.75 µM
growth at 10 µM (HL-60(TB)): -24%
growth at 100 µM [2]: -42%
growth at 10 µM (SF-268 [3]): 4.96%
growth at 10 µM [4]: -54.1%
growth at 0.1 µM (MDA-MB-435 [5]): 88%
growth at 1 µM (SF-268 [6]): 24%
growth at 10 µM (SK-MEL-5): 47%
growth at 10 µM (DU-145): 4%
growth at 10 µM (CAKI-1): -66.1%
growth at 100 µM (MDA-MB-435 [7]): -9%
GI50 (A549 [8]): 277 nM
TGI (A549 [8]): 0.887 µM
CC50 (A549 [8]): > 100 µM
growth at 0.1 µM (SF-268 [9]): 98%
growth at 10 µM (786-0): -91%
GI50 (SN12C): 245 nM
LC50 (SN12C): > 100 µM
growth at 0.01 µM (SN12C): 93%
TGI (SN12C): 724 nM
growth at 1 µM [10]: 50%
growth at 1 µM (MDA-MB-231): 26%
GI50 (SW-620 [11]): 317 nM
TGI (SW-620 [11]): 2790 nM
CC50 (SW-620 [11]): > 100000 nM
growth at 10 µM [12]: -2%
growth at 10 µM (IGROV-1): -39%
growth at 1 µM (A549 [13]): -5%
growth at 10 µM (SW-620 [14]): -15.2%
growth at 10 µM (K562): 0.79%
growth at 0.1 µM [15]: 95%
growth at 10 µM (SNB-19): -39.1%
growth at 10 µM (NCI-H322M): -29%
growth at 10 µM [16]: -58.7%
growth at 10 µM (M14): 17%
growth at 100 µM (NCI-H226): -55%
GI50 (Malme-3M): 3210 nM
CC50 (Malme-3M): > 100 µM
growth at 0.1 µM (PC-3): 93%
growth at 10 µM [17]: 8%
growth at 10 µM (A498): -27%
growth at 10 µM (CCRF-CEM): -14%
growth at 10 µM [18]: 20.5%
GI50 [19]: 1700 nM
LC50 [19]: > 100 µM
growth at 0.01 µM [19]: 81%
TGI [19]: 5.5 µM

O=C1/C(=C/c2c(Cl)cccc2Cl)CN(S(=O)(=O)c2ccccc2)C/C1=C\c1c(Cl)cccc1Cl
growth at 10 µM (HL-60(TB)): 81%
growth at 10 µM (SF-268 [3]): 78.6%
growth at 10 µM [4]: 99.9%
growth at 10 µM (SK-MEL-5): 85.3%
growth at 10 µM (DU-145): 85.8%
growth at 10 µM (CAKI-1): 136%
growth at 10 µM (786-0): 93%
growth at 10 µM [12]: 52.8%
growth at 10 µM (IGROV-1): 100%
growth at 10 µM (SW-620 [14]): 89.4%
growth at 10 µM (K562): 77.8%
growth at 10 µM (SNB-19): 92.7%
growth at 10 µM (NCI-H322M): 85%
growth at 10 µM [16]: 78%
growth at 10 µM (M14): 66.3%
growth at 10 µM [17]: 84.6%
growth at 10 µM (A498): 91.6%
growth at 10 µM (CCRF-CEM): 42.4%
growth at 10 µM [18]: 81.6%
